Test results published in patent US9624170B2, “4-(piperrazin-1-yl)-pyrrolidin-2-one compounds as monoacylglycerol lipase (MAGL) inhibitors” (TAKEDA PHARMACEUTICAL COMPANY LIMITED, priority 2013, dated 2017).

Molecular target: T1, human MAGL (His-hMAGL) (Homo sapiens, UniProt Q99685)
T1 construct: made in house; host or cells: Escherichia coli BL21(DE3)
T1 sequence (Q99685 1-303): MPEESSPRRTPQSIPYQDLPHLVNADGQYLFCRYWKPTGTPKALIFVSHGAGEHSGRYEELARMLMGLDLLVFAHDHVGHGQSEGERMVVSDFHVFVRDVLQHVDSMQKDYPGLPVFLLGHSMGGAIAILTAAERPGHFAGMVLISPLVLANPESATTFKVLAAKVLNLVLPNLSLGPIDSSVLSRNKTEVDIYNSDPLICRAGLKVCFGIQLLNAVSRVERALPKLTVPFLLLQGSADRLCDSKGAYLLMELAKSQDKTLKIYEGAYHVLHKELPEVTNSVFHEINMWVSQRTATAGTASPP
Test: Measurement of MAGL inhibitory activity by mass spectrometry
Type: biochemical
Settings: MAGL inhibitory rate, test compound 10 μM, His-hMAGL, substrate 2-arachidonylglycerol, RapidFire-mass spectrometry
Procedure, shortened: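 His-tagged human MAGL was reacted with 150 μM 2-arachidonylglycerol substrate (stock, added by 5 μL) for 10 min at room temperature, then stopped with formic acid. Arachidonic acid product was quantified by RapidFire–triple-quadrupole MS in negative SRM mode, corrected by arachidonic acid-d8, and converted to percent inhibition.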

`O=C(c1nccs1)N1CCN(C2CC(=O)N(c3cccc(-c4cccnc4Cl)c3)C2)CC1` (stereo not drawn) [Example 266, 1-(3-(2-chloropyridin-3-yl)phenyl)-4-(4-(1,3-thiazol-2-ylcarbonyl)piperazin-1-yl)pyrrolidin-2-one(optical isomer)] was tested, and the “% inhibition at 10 μM” value was 99%.

`O=C1Cc2ccc(-c3cccc(N4CC(N5CCN(C(=O)c6nccs6)CC5)CC4=O)c3)cc2N1` (stereo not drawn) [Example 267, 6-(3-(2-oxo-4-(4-(1,3-thiazol-2-ylcarbonyl)piperazin-1-yl)pyrrolidin-1-yl)phenyl)-1,3-dihydro-2H-indol-2-one(optical isomer)] was tested, and the “% inhibition at 10 μM” value was 102%.

`Cc1ccccc1-c1cccc(N2CC(N3CCN(c4ncccn4)CC3)CC2=O)c1` (stereo not shown) [Example 268, 1-(2′-methylbiphenyl-3-yl)-4-(4-(pyrimidin-2-yl)piperazin-1-yl)pyrrolidin-2-one] showed an inhibition at 10 µM of 101%.

`O=C1CC(N2CCN(c3ncccn3)CC2)CN1c1cccc(-c2ccccc2Cl)c1` (stereo not shown) [Example 269, 1-(2′-chlorobiphenyl-3-yl)-4-(4-(pyrimidin-2-yl)piperazin-1-yl)pyrrolidin-2-one] was tested, and the inhibition at 10 µM was 101%.

Compound `O=C(c1cscn1)N1CCN(C2CC(=O)N(c3ccc4c(ccn4-c4ccc(F)cc4)c3)C2)CC1` (stereo not shown) [Example 270, 1-(1-(4-fluorophenyl)-1H-indol-5-yl)-4-(4-(1,3-thiazol-4-ylcarbonyl)piperazin-1-yl)pyrrolidin-2-one] has an inhibition at 10 µM of 100%.

`O=C(c1nccs1)N1CCN([C@@H]2CC(=O)N(c3ccc4c(c3)CCN4c3ncc(C(F)(F)F)cn3)C2)CC1` [Example 271, (4R)-4-(4-(1,3-thiazol-2-ylcarbonyl)piperazin-1-yl)-1-(1-(5-(trifluoromethyl)pyrimidin-2-yl)-2,3-dihydro-1H-indol-5-yl)pyrrolidin-2-one] showed an inhibition at 10 µM of 101%.

`Cc1ncnc(C)c1-c1cccc(N2CC(N3CCN(C(=O)c4nccs4)CC3)CC2=O)c1` (stereo not shown) [Example 273, 1-(3-(4,6-Dimethylpyrimidin-5-yl)phenyl)-4-(4-(1,3-thiazol-2-ylcarbonyl)piperazin-1-yl)pyrrolidin-2-one] gave an inhibition at 10 µM of 100%.

`Cc1cccc(-c2ccc(N3CC(N4CCN(C(=O)c5nccs5)CC4)CC3=O)cc2)n1` (stereo not shown) [Example 274, 1-(4-(6-methylpyridin-2-yl)phenyl)-4-(4-(1,3-thiazol-2-ylcarbonyl)piperazin-1-yl)pyrrolidin-2-one] was tested, and the inhibition at 10 µM was 96%.

`O=C(c1nccs1)N1CCN(C2CC(=O)N(c3cccc(-c4ccc(F)cc4Cl)c3)C2)CC1` (stereo not shown) [Example 275, 1-(2′-chloro-4′-fluorobiphenyl-3-yl)-4-(4-(1,3-thiazol-2-ylcarbonyl)piperazin-1-yl)pyrrolidin-2-one] showed an inhibition at 10 µM of 103%.

For `O=C(c1nccs1)N1CCN(C2CC(=O)N(c3ccc(F)c(-c4ccc(F)cc4Cl)c3)C2)CC1` (stereo not shown) [Example 276, 1-(2′-chloro-4′,6-difluorobiphenyl-3-yl)-4-(4-(1,3-thiazol-2-ylcarbonyl)piperazin-1-yl)pyrrolidin-2-one], the inhibition at 10 µM was 102%.

With `O=C(c1nccs1)N1CCN(C2CC(=O)N(c3ccc(F)c(-c4ccccc4Cl)c3)C2)CC1` (stereo not shown) [Example 277, 1-(2′-chloro-6-fluorobiphenyl-3-yl)-4-(4-(1,3-thiazol-2-ylcarbonyl)piperazin-1-yl)pyrrolidin-2-one] the inhibition at 10 µM was 98%.

`Cc1cc(C)cc(-n2ccc3cc(N4CC(N5CCN(C(=O)c6nccs6)CC5)CC4=O)ccc32)c1` (stereo not shown) [Example 279, 1-(1-(3,5-dimethylphenyl)-1H-indol-5-yl)-4-(4-(1,3-thiazol-2-ylcarbonyl)piperazin-1-yl)pyrrolidin-2-one] gave an inhibition at 10 µM of 101%.

`O=C(c1nccs1)N1CCN(C2CC(=O)N(c3ccc4c(ccn4-c4cccc(C(F)(F)F)c4)c3)C2)CC1` (stereo not shown) [Example 280, 4-(4-(1,3-thiazol-2-ylcarbonyl)piperazin-1-yl)-1-(1-(3-(trifluoromethyl)phenyl)-1H-indol-5-yl)pyrrolidin-2-one] showed an inhibition at 10 µM of 101%.

`O=C(c1nccs1)N1CCN(C2CC(=O)N(c3ccc4c(ccn4-c4nccc(C(F)(F)F)n4)c3)C2)CC1` (stereo not shown) [Example 281, 4-(4-(1,3-thiazol-2-ylcarbonyl)piperazin-1-yl)-1-(1-(4-(trifluoromethyl)pyrimidin-2-yl)-1H-indol-5-yl)pyrrolidin-2-one] was tested, and the inhibition at 10 µM was 99%.

`O=C(c1nccs1)N1CCN(C2CC(=O)N(c3cccc(-c4c(F)cc(F)cc4F)c3)C2)CC1` (stereo not shown) [Example 282, 4-(4-(1,3-thiazol-2-ylcarbonyl)piperazin-1-yl)-1-(2′,4′,6′-trifluorobiphenyl-3-yl)pyrrolidin-2-one] showed an inhibition at 10 µM of 100%.

`O=C(c1nccs1)N1CCN(C2CC(=O)N(c3cccc(-c4ccc(Cl)cc4Cl)c3)C2)CC1` (stereo not shown) [Example 283, 1-(2′,4′-dichlorobiphenyl-3-yl)-4-(4-(1,3-thiazol-2-ylcarbonyl)piperazin-1-yl)pyrrolidin-2-one] gave an inhibition at 10 µM of 101%.

`O=C(c1nccs1)N1CCN(C2CC(=O)N(c3cccc(-c4ccc(F)c(Cl)c4)c3)C2)CC1` (stereo not shown) [Example 284, 1-(3′-chloro-4′-fluorobiphenyl-3-yl)-4-(4-(1,3-thiazol-2-ylcarbonyl)piperazin-1-yl)pyrrolidin-2-one] showed an inhibition at 10 µM of 101%.

`O=C(c1nccs1)N1CCN(C2CC(=O)N(c3cccc(-c4ccccc4-c4ccccc4)c3)C2)CC1` (stereo not shown) [Example 285, 1-(1,1′:2′,1″-terphenyl-3-yl)-4-(4-(1,3-thiazol-2-ylcarbonyl)piperazin-1-yl)pyrrolidin-2-one] was tested, and the inhibition at 10 µM was 101%.

In the case of `O=C(O)c1ccc(-c2cccc(N3CC(N4CCN(C(=O)c5nccs5)CC4)CC3=O)c2)cc1` (stereo not shown) [Example 286, 3′-(2-oxo-4-(4-(1,3-thiazol-2-ylcarbonyl)piperazin-1-yl)pyrrolidin-1-yl)biphenyl-4-carboxylic acid], the inhibition at 10 µM is reported as 91%.

`O=C(c1nccs1)N1CCN(C2CC(=O)N(c3cccc(-c4cccc(C(F)(F)F)c4)c3)C2)CC1` (stereo not shown) [Example 287, 4-(4-(1,3-thiazol-2-ylcarbonyl)piperazin-1-yl)-1-(3′-(trifluoromethyl)biphenyl-3-yl)pyrrolidin-2-one] showed an inhibition at 10 µM of 103%.

`O=C(c1nccs1)N1CCN(C2CC(=O)N(c3cccc(-c4ccc(C(F)(F)F)cc4)c3)C2)CC1` (stereo not shown) [Example 288, 4-(4-(1,3-thiazol-2-ylcarbonyl)piperazin-1-yl)-1-(4′-(trifluoromethyl)biphenyl-3-yl)pyrrolidin-2-one] showed an inhibition at 10 µM of 97%.

`CCOc1ccccc1-c1cccc(N2CC(N3CCN(C(=O)c4nccs4)CC3)CC2=O)c1` (stereo not shown) [Example 289, 1-(2′-ethoxybiphenyl-3-yl)-4-(4-(1,3-thiazol-2-ylcarbonyl)piperazin-1-yl)pyrrolidin-2-one] showed an inhibition at 10 µM of 103%.

For `O=C(c1nccs1)N1CCN(C2CC(=O)N(c3cccc(-c4ccc(F)c(F)c4)c3)C2)CC1` (stereo not shown) [Example 290, 1-(3′,4′-difluorophenyl-3-yl)-4-(4-(1,3-thiazol-2-ylcarbonyl)piperazin-1-yl)pyrrolidin-2-one], the inhibition at 10 µM was 101%.

`O=C(c1nccs1)N1CCN(C2CC(=O)N(c3cccc(-c4ccccc4Oc4ccccc4)c3)C2)CC1` (stereo not shown) [Example 291, 1-(2′-phenoxybiphenyl-3-yl)-4-(4-(1,3-thiazol-2-ylcarbonyl)piperazin-1-yl)pyrrolidin-2-one] gave an inhibition at 10 µM of 104%.

With `O=C(c1nccs1)N1CCN(C2CC(=O)N(c3cccc(-c4ccc(OC(F)(F)F)cc4)c3)C2)CC1` (stereo not shown) [Example 292, 4-(4-(1,3-thiazol-2-ylcarbonyl)piperazin-1-yl)-1-(4′-(trifluoromethoxy)biphenyl-3-yl)pyrrolidin-2-one] the inhibition at 10 µM was 93%.

`O=C(c1nccs1)N1CCN(C2CC(=O)N(c3cccc(-c4cccc(Cl)c4Cl)c3)C2)CC1` (stereo not shown) [Example 293, 1-(2′,3′-dichlorophenyl-3-yl)-4-(4-(1,3-thiazol-2-ylcarbonyl)piperazin-1-yl)pyrrolidin-2-one] showed an inhibition at 10 µM of 103%.

For `O=C(c1nccs1)N1CCN(C2CC(=O)N(c3cccc(-c4csc5ccccc45)c3)C2)CC1` (stereo not shown) [Example 294, 1-(3-(1-benzothiophen-3-yl)phenyl)-4-(4-(1,3-thiazol-2-ylcarbonyl)piperazin-1-yl)pyrrolidin-2-one], the inhibition at 10 µM was 100%.

For `N#Cc1ccc(-c2cccc(N3CC(N4CCN(C(=O)c5nccs5)CC4)CC3=O)c2)cc1` (stereo not shown) [Example 295, 3′-(2-oxo-4-(4-(1,3-thiazol-2-ylcarbonyl)piperazin-1-yl)pyrrolidin-1-yl)biphenyl-4-carbonitrile], the inhibition at 10 µM was 98%.

`O=C(c1nccs1)N1CCN(C2CC(=O)N(c3cccc(-c4ccc(F)cc4F)c3)C2)CC1` (stereo not shown) [Example 296, 1-(2′,4′-difluorobiphenyl-3-yl)-4-(4-(1,3-thiazol-2-ylcarbonyl)piperazin-1-yl)pyrrolidin-2-one] showed an inhibition at 10 µM of 102%.

With `O=C(c1nccs1)N1CCN(C2CC(=O)N(c3cccc(-c4cccc(OC(F)(F)F)c4)c3)C2)CC1` (stereo not shown) [Example 297, 4-(4-(1,3-thiazol-2-ylcarbonyl)piperazin-1-yl)-1-(3′-(trifluoromethoxy)biphenyl-3-yl)pyrrolidin-2-one] the inhibition at 10 µM was 103%.

In the case of `O=C(c1nccs1)N1CCN(C2CC(=O)N(c3cccc(-c4ccccc4OC(F)(F)F)c3)C2)CC1` (stereo not shown) [Example 298, 4-(4-(1,3-thiazol-2-ylcarbonyl)piperazin-1-yl)-1-(2′-(trifluoromethoxy)biphenyl-3-yl)pyrrolidin-2-one], the inhibition at 10 µM is reported as 101%.
